Experimental data from the CheMixHub viscosity set.

Assay: xn = mol fraction of the nth substance listed

COCCOCCOCCOCCOC + CC1COC(=O)O1
298.15 K, 101.33 kPa
Conditions | viscosity [mPa·s]
x1 = 0.0021 | 2.505
x1 = 0.0047 | 2.51
x1 = 0.0111 | 2.543
x1 = 0.0248 | 2.604
x1 = 0.0362 | 2.663
x1 = 0.0516 | 2.716
x1 = 0.0765 | 2.814
x1 = 0.1064 | 2.935
x1 = 0.1537 | 3.083
x1 = 0.1752 | 3.145
x1 = 0.2194 | 3.268
x1 = 0.259 | 3.355
x1 = 0.3006 | 3.428
x1 = 0.3585 | 3.506
x1 = 0.3967 | 3.56
x1 = 0.4451 | 3.59
x1 = 0.4956 | 3.602
x1 = 0.5433 | 3.607
x1 = 0.6081 | 3.609
x1 = 0.6396 | 3.615
x1 = 0.7173 | 3.588
x1 = 0.782 | 3.559
x1 = 0.8311 | 3.541
x1 = 0.896 | 3.498
x1 = 0.9403 | 3.466

C=CC(=O)OCC + CC#N
viscosity [mPa·s], 100 kPa
Conditions | 293.15 K | 298.15 K | 303.15 K | 308.15 K | 313.15 K | 318.15 K
x2 = 0.0611 | 0.5524 | 0.5177 | 0.4854 | 0.4506 | 0.4107 | 0.3704
x2 = 0.1197 | 0.5374 | 0.5035 | 0.472 | 0.4383 | 0.3998 | 0.3611
x2 = 0.1852 | 0.5211 | 0.4883 | 0.4578 | 0.4254 | 0.3886 | 0.3517
x2 = 0.2385 | 0.5081 | 0.4762 | 0.4467 | 0.4154 | 0.3801 | 0.3447
x2 = 0.2966 | 0.4944 | 0.4633 | 0.4348 | 0.4048 | 0.3711 | 0.3374
x2 = 0.3675 | 0.4781 | 0.4483 | 0.421 | 0.3926 | 0.3609 | 0.3293
x2 = 0.436 | 0.4629 | 0.4343 | 0.4082 | 0.3812 | 0.3515 | 0.3219
x2 = 0.4982 | 0.4496 | 0.4221 | 0.3971 | 0.3714 | 0.3435 | 0.3157
x2 = 0.5745 | 0.4339 | 0.4078 | 0.3841 | 0.3601 | 0.3343 | 0.3087
x2 = 0.6519 | 0.4188 | 0.394 | 0.3717 | 0.3493 | 0.3257 | 0.3024
x2 = 0.725 | 0.4054 | 0.3819 | 0.3608 | 0.34 | 0.3185 | 0.2973
x2 = 0.8185 | 0.3896 | 0.3678 | 0.3484 | 0.3296 | 0.3108 | 0.2924
x2 = 0.9145 | 0.3751 | 0.3552 | 0.3378 | 0.3213 | 0.3054 | 0.2901

CCCCn1cc[n+](C)c1.F[P-](F)(F)(F)(F)F + CC#N
298.15 K, 101 kPa
Conditions | viscosity [mPa·s]
x2 = 0.1938 | 92.9
x2 = 0.5896 | 8.84

Clc1ccccc1 + CC#N
viscosity [mPa·s], 101 kPa
Conditions | 298.15 K | 303.15 K | 308.15 K
x1 = 0.1038 | – | – | 0.352
x1 = 0.2009 | – | – | 0.3871
x1 = 0.3059 | – | – | 0.4245
x1 = 0.3949 | – | – | 0.4591
x1 = 0.4943 | – | – | 0.4944
x1 = 0.5946 | – | – | 0.5309
x1 = 0.6984 | – | – | 0.5671
x1 = 0.7956 | – | – | 0.6032
x1 = 0.8961 | – | – | 0.6352
x2 = 0.082 | 0.728 | 0.65 | –
x2 = 0.1809 | 0.681 | 0.609 | –
x2 = 0.267 | 0.642 | 0.577 | –
x2 = 0.3853 | 0.587 | 0.529 | –
x2 = 0.506 | 0.539 | 0.484 | –
x2 = 0.5957 | 0.501 | 0.459 | –
x2 = 0.6925 | 0.46 | 0.418 | –
x2 = 0.8175 | 0.406 | 0.373 | –
x2 = 0.9171 | 0.367 | 0.337 | –

CCOP(=O)(OCC)OCC + CC(=O)N(C)C
298.15 K, 101.3 kPa
Conditions | viscosity [mPa·s]
x1 = 0.1085 | 0.997
x1 = 0.2118 | 1.066
x1 = 0.3173 | 1.133
x1 = 0.4275 | 1.199
x1 = 0.5277 | 1.257
x1 = 0.5946 | 1.294
x1 = 0.7173 | 1.36
x1 = 0.8144 | 1.41
x1 = 0.8998 | 1.456

N#CCCCCC#N + CC(=O)N(C)C
303.15 K, 101.33 kPa
Conditions | viscosity [mPa·s]
x1 = 0.0999 | 0.9801
x1 = 0.2976 | 1.363
x1 = 0.3998 | 1.666
x1 = 0.4988 | 2.029
x1 = 0.5898 | 2.42
x1 = 0.699 | 2.965
x1 = 0.8491 | 3.85

CCCCn1cc[n+](C)c1.F[P-](F)(F)(F)(F)F + CC(C)=O
Conditions | viscosity [mPa·s]
298.15 K, 101 kPa, x2 = 0.1935 | 88.9

COC(C)(C)C + CC(C)CC(C)(C)C
Conditions | viscosity [mPa·s]
298.15 K, 101.33 kPa, x1 = 0.125 | 0.4633
298.15 K, 101.33 kPa, x1 = 0.2442 | 0.4465
298.15 K, 101.33 kPa, x1 = 0.3612 | 0.4301
298.15 K, 101.33 kPa, x1 = 0.462 | 0.4159
298.15 K, 101.33 kPa, x1 = 0.5638 | 0.4012
298.15 K, 101.33 kPa, x1 = 0.6579 | 0.3878
298.15 K, 101.33 kPa, x1 = 0.7533 | 0.3739
298.15 K, 101.33 kPa, x1 = 0.8375 | 0.3611
298.15 K, 101.33 kPa, x1 = 0.9182 | 0.3483
303.15 K, 101 kPa, x1 = 0.1862 | 0.436
303.15 K, 101 kPa, x1 = 0.3104 | 0.423
303.15 K, 101 kPa, x1 = 0.3813 | 0.416
303.15 K, 101 kPa, x1 = 0.4961 | 0.404
303.15 K, 101 kPa, x1 = 0.6203 | 0.39
303.15 K, 101 kPa, x1 = 0.6609 | 0.386
303.15 K, 101 kPa, x1 = 0.8925 | 0.36
